# In patent US8618285B2, “Triazole derivatives” (Merck Patent GmbH, priority 2005, dated 2013):
# Biological target: T1, Recombinant human HSP90α (Homo sapiens, UniProt P07900)
# T1 construct: host or cells: E. coli
# Experiment: radioligand filter binding test, competitive inhibition of [3H]17AAG binding to HSP90
# Conditions: [3H]17AAG 0.08 μM, HSP90 1.5 μg/assay, 22° C., 30 min
# Excerpt: The binding of geldanamycin or 17-allylamino-17-demethoxygeldanamycin (17AAG) to HSP90 and competitive inhibition thereof can be utilised in order to determine the inhibitory activity of the compounds according to the invention (Carreras et al. 2003, Chiosis et al. 2002).
# In the specific case, a radioligand filter binding test is used. The radio-ligand used here is tritium-labelled 17-allylaminogeldanamycin, [3H]17AAG. This filter binding test allows a targeted search for inhibitors which interfere with the ATP binding site. Material
# Recombinant human HSP90α (E. coli expressed, 95% purity); [3H]17AAG (17-allylaminogeldanamycin, [allylamino-2,3-^3H. Specific activity: 1.11×10^12 Bq/mmol (Moravek, MT-1717);
# HEPES filter buffer (50 mM HEPES, pH 7.0, 5 mM MgCl2, BSA 0.01%) Multiscreen FB (1 μm) filter plate (Millipore, MAFBNOB 50).
# The 96-well microtitre filter plates are firstly irrigated and coated with 0.1% of polyethylenimine.
# The test is carried out under the following conditions: • Reaction temperature 22° C. • Reaction time: 30 min., shaking at 800 rpm • Test volume: 50 μl • Final concentrations: • 50 mM HEPES HCl, pH 7.0, 5 mM MgCl2, 0.01% (w/v) BSA • HSP90: 1.5 μg/assay • [3H]17AAG: 0.08 μM.
# At the end of the reaction, the supernatant in the filter plate is removed by suction with the aid of a vacuum manifold (Multiscreen Separation System, Millipore), and the filter is washed twice.
# The filter plates are then measured in a beta counter (Microbeta, Wallac) with scintillator (Microscint 20, Packard).
# “% of control” is determined from the “counts per minutes” values and the IC50 value of a compound is calculated therefrom.
row,IC50,Structure (SMILES)
1,120 nM,"CCCCN(C)S(=O)(=O)c1cc(-c2nnc(O)n2-c2ccccc2Cl)c(O)cc1O [A26, 5-[2,4-dihydroxy-5-(N-butyl-N-methylsulfamoyl)phenyl]-4-(2-chloro-phenyl)-3-hydroxy-4H-1,2,4-triazole]"
2,160 nM,"CCCN(C)S(=O)(=O)c1cc(-c2nnc(O)n2-c2ccccc2Cl)c(O)cc1O [A28, 5-[2,4-dihydroxy-5-(N-propyl-N-methylsulfamoyl)phenyl]-4-(2-chloro-phenyl)-3-hydroxy-4H-1,2,4-triazole]"
3,140 nM,"CN(Cc1ccccc1)S(=O)(=O)c1cc(-c2nnc(O)n2-c2ccccc2Cl)c(O)cc1O [A32, 5-[2,4-dihydroxy-5-(N-benzyl-N-methylsulfamoyl)phenyl]-4-(2-chloro-phenyl)-3-hydroxy-4H-1,2,4-triazole]"
4,80 nM,"CCCN(C)S(=O)(=O)c1cc(-c2nnc(O)n2-c2ccccc2CC)c(O)cc1O [A34, 5-[2,4-dihydroxy-5-(N-propyl-N-methylsulfamoyl)phenyl]-4-(2-ethyl-phenyl)-3-hydroxy-4H-1,2,4-triazole]"
5,330 nM,"CCCN(C)S(=O)(=O)c1cc(-c2nnc(O)n2-c2cccc(Cl)c2)c(O)cc1O [A38, 5-[2,4-dihydroxy-5-(N-propyl-N-methylsulfamoyl)phenyl]-4-(3-chloro-phenyl)-3-hydroxy-4H-1,2,4-triazole]"
6,180 nM,"CCCN(C)S(=O)(=O)c1cc(-c2nnc(O)n2-c2cccc(F)c2)c(O)cc1O [A39, 5-[2,4-dihydroxy-5-(N-propyl-N-methylsulfamoyl)phenyl]-4-(3-fluoro-phenyl)-3-hydroxy-4H-1,2,4-triazole]"
7,140 nM,"CCCN(C)S(=O)(=O)c1cc(-c2nnc(O)n2-c2ccccc2C)c(O)cc1O [A40, 5-[2,4-dihydroxy-5-(N-propyl-N-methylsulfamoyl)phenyl]-4-(2-methyl-phenyl)-3-hydroxy-4H-1,2,4-triazole]"
